Active and inactive are the calls of the source. The calls are words filed in the database; no cut-off is given here.
Key:
[1] = target: T1, Alpha-galactosidase (Escherichia coli K-12) (UniProt P06720); assay: Inhibitory activity against alpha-galactosidase in Escherichia coli at 1 mM
T1 sequence (whole entry): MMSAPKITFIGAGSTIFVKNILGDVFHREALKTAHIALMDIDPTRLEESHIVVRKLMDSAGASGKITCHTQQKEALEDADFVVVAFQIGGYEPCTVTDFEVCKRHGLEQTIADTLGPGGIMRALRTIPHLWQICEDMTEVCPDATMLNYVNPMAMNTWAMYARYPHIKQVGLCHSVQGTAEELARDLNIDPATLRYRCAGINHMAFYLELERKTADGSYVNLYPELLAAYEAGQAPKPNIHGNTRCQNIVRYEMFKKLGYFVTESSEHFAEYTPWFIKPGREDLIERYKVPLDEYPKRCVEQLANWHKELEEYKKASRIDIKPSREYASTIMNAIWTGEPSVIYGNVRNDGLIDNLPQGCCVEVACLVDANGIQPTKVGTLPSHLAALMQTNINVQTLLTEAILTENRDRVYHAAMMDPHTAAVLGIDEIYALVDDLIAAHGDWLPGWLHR

[2] = target: Glucoamylase (Aspergillus niger) (UniProt P69328); assay: Inhibitory activity against amyloglucosidase in Aspergillus niger at 1 mM
Glucoamylase (Aspergillus niger), sequence (P69328 whole entry): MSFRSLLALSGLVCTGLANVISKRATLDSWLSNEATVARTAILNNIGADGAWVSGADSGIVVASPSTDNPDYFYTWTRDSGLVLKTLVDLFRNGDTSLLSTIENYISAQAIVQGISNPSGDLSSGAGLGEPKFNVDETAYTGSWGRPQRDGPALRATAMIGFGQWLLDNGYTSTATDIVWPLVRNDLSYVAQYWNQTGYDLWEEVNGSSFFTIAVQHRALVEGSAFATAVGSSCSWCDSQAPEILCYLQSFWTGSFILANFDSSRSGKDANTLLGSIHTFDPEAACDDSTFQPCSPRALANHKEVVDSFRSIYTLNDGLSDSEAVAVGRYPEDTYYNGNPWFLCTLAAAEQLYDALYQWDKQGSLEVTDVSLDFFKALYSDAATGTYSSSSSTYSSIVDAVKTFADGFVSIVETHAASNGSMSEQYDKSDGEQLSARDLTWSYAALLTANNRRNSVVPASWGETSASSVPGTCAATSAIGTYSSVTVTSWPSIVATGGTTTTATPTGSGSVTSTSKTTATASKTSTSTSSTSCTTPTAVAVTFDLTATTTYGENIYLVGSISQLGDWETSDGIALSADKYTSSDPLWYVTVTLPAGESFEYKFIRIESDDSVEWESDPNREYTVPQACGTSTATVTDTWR

[3] = target: T2, Beta-galactosidase/ beta-glucuronidase (Aspergillus oryzae (strain ATCC 42149 / RIB 40)) (UniProt Q2TXB7); assay: Inhibitory activity against beta-galactosidase in Aspergillus oryzae at 1 mM
T2 sequence (whole entry): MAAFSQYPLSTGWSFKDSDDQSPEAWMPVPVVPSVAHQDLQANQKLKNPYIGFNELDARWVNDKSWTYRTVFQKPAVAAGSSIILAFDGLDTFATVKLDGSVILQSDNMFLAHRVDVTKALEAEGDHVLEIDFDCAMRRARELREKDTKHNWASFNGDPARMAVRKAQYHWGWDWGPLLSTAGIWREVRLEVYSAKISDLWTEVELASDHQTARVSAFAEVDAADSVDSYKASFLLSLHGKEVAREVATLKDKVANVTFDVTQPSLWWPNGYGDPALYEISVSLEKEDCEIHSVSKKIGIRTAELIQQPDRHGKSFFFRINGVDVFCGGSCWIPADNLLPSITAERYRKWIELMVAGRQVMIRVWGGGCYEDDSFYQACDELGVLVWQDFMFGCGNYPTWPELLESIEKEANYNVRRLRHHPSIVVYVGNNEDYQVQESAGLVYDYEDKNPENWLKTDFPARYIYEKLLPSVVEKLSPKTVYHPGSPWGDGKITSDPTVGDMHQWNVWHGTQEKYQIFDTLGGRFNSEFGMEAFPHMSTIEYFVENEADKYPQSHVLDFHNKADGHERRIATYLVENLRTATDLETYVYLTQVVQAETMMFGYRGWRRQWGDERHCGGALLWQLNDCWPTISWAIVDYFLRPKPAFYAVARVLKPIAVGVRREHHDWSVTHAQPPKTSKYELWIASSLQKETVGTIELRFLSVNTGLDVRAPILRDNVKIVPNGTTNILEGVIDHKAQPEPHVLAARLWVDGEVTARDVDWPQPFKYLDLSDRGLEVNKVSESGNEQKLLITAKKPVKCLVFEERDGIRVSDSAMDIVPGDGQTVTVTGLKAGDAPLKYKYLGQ

[4] = target: T3, Beta-galactosidase (Bos taurus) (UniProt Q58D55); assay: Inhibitory activity against beta-galactosidase in bovine liver at 1 mM
T3 sequence (whole entry): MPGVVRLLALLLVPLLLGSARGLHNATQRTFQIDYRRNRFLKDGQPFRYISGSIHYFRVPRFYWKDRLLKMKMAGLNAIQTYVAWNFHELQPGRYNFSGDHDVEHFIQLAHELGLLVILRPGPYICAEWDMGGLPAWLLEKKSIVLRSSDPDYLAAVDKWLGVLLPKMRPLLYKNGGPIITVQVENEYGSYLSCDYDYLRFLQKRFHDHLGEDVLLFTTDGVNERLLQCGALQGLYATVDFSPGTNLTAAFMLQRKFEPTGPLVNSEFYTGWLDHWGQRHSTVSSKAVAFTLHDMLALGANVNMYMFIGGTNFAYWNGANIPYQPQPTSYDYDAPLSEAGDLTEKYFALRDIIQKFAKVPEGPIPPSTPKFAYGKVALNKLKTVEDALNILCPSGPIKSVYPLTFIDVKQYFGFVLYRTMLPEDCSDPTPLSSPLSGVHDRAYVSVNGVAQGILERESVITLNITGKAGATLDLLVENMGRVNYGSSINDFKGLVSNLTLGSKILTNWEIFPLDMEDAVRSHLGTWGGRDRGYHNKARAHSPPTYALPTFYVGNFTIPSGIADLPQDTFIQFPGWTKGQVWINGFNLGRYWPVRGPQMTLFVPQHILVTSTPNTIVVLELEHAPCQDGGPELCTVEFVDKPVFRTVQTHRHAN

[5] = test system: Beta-hexosaminidase (Bos taurus); assay: Inhibitory activity against beta-N-acetylglucosaminidase in bovine kidney at 1 mM
[6] = target: Alpha-galactosidase (Oryza sativa Japonica Group) (UniProt Q9FXT4); assay: Inhibitory activity against alpha-galactosidase in rice at 1 mM
Alpha-galactosidase (Oryza sativa Japonica Group), sequence (Q9FXT4 whole entry): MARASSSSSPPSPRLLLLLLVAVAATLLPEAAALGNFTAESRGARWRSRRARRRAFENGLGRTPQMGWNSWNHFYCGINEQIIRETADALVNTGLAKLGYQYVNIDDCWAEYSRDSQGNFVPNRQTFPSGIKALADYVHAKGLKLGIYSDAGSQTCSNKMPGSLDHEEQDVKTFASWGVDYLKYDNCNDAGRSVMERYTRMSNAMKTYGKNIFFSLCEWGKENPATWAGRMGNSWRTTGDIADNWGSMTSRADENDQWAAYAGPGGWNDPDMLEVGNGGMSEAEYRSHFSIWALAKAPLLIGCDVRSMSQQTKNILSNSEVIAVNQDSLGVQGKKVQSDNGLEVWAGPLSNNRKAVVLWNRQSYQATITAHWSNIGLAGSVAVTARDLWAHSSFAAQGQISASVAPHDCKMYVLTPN

[7] = target: T4, Tissue alpha-L-fucosidase (Bos taurus) (UniProt Q2KIM0); assay: Inhibitory activity against alpha-L-fucosidase in bovine brain at 1 mM
T4 sequence (whole entry): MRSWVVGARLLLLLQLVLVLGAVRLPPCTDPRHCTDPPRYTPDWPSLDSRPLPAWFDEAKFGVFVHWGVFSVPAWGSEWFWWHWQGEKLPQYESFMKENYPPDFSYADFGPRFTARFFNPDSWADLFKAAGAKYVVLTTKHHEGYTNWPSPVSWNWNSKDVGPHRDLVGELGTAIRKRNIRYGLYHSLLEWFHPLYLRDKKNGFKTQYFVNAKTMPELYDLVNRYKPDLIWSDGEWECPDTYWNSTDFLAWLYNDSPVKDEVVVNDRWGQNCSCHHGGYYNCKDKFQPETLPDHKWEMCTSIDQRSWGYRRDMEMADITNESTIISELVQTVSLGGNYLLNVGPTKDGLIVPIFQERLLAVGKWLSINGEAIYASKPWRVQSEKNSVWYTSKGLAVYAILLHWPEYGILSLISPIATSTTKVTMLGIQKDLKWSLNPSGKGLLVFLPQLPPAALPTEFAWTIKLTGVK

[8] = target: T5, Exo-1,4-beta-xylosidase xlnD (Aspergillus niger) (UniProt O00089); assay: Inhibitory activity against beta-xylosidase in Aspergillus niger at 1 mM
T5 sequence (whole entry): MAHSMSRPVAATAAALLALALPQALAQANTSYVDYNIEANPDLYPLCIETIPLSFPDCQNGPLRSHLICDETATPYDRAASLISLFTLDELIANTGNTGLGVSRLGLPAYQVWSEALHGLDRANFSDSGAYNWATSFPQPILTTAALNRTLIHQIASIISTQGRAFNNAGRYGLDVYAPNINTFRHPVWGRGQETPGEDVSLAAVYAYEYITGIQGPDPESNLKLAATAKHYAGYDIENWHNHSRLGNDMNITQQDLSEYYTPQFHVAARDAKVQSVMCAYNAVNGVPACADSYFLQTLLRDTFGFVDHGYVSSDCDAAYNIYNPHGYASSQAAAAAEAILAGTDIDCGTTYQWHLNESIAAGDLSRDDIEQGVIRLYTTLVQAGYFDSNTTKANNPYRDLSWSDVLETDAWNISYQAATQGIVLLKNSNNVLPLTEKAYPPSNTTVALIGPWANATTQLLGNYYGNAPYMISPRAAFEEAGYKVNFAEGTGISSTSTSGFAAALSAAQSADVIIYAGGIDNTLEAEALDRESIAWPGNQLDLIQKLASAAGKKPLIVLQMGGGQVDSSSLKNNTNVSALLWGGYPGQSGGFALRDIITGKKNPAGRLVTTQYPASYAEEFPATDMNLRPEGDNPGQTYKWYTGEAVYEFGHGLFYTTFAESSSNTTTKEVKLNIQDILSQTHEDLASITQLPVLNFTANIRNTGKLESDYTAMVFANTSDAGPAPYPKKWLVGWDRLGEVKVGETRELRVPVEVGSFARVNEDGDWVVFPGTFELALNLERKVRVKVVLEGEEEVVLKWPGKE

[9] = test system: Saccharomyces cerevisiae; assay: Inhibitory activity against alpha-glucosidase in yeast; details: concentration not given here
[10] = Inhibitory activity against beta-mannosidase in Helix pomatia at 1 mM
[11] = test system: Beta-hexosaminidase (Canavalia ensiformis); assay: Inhibitory activity against beta-N-acetylglucosaminidase in jack beans at 1 mM
[12] = target: T6, Glucoamylase 1 (Rhizopus oryzae) (UniProt P07683); assay: Inhibitory activity against amyloglucosidase in Rhizopus mold at 1 mM
T6 sequence (whole entry): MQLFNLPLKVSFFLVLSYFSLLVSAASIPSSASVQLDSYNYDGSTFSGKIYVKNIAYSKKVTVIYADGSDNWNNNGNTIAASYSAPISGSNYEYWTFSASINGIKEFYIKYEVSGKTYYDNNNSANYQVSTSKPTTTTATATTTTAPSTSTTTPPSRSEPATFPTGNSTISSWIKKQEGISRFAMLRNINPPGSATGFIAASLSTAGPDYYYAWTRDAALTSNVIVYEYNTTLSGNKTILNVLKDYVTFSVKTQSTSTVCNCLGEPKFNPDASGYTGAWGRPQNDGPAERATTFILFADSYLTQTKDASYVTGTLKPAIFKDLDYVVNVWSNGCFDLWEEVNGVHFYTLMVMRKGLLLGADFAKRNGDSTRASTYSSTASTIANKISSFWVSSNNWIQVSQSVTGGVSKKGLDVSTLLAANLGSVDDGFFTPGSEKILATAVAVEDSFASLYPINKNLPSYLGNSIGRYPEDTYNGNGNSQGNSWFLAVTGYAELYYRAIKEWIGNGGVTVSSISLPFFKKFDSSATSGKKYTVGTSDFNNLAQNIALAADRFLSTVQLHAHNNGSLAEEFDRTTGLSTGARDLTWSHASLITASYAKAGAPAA

[13] = target: Alpha-galactosidase (Coffea arabica) (UniProt Q5DUH8); assay: Inhibitory activity against alpha-galactosidase in coffee beans at 1 mM
Alpha-galactosidase (Coffea arabica), sequence (Q5DUH8 as listed by the source): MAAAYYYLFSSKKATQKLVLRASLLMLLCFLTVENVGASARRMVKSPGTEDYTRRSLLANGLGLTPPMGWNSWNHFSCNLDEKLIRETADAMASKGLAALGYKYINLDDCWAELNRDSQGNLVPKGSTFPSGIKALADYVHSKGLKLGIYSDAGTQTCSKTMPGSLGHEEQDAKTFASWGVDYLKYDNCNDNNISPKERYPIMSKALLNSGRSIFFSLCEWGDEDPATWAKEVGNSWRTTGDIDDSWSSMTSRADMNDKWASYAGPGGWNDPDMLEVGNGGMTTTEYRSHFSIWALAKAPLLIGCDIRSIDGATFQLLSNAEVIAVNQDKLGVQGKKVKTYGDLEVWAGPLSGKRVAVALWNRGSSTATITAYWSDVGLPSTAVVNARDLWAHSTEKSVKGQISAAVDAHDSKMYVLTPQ

Activity [1] | Activity [2] | Activity [3] | Activity [4] | Activity [5] | Activity [6] | Activity [7] | Activity [8] | inhibition [9] | Activity [10] | Activity [11] | Activity [12] | Activity [13] | SMILES
inactive | inactive | inactive | inactive | inactive | inactive | inactive | inactive | 45% | inactive | inactive | inactive | inactive | CC1(O)C(=O)N2CCCC2C1O (configuration not stated)
inactive | inactive | inactive | inactive | inactive | inactive | inactive | inactive | 48% | inactive | inactive | inactive | inactive | C[C@@H]1NC(=O)C(C)(O)C1O (some centres not stated)
inactive | inactive | inactive | inactive | inactive | inactive | inactive | inactive | 51% | inactive | inactive | inactive | inactive | CC(C)[C@@H]1NC(=O)C(C)(O)C1O (some centres not stated)
inactive | inactive | inactive | inactive | inactive | inactive | inactive | inactive | 46% | inactive | inactive | inactive | inactive | C[C@@H]1CNC(=O)C(C)(O)C1O (some centres not stated)
